From patent US20060063785A1, “Substituted pyrazolo[1,5-a] pyrimidines and process for making same” (priority 2004, published 2006)
Where two headings read alike, the source gives them in different places.

How the values were obtained:
[1] = system: 80S14 (p21-deficient) cells; assay: Determination of selectivity of compounds for p21-/- cells: IC50 in 80S14 cells (SRB); format: cell-based, human; details: SRB, read-out: IC50 for 80S14
Experimental: • 1. 80S14 (p21-deficient) cells were cultured in RPMI 1640 medium (Gibco/Invitrogen Life technologies) supplemented with 10% fetal bovine serum (FBS, Gibco) and 10 μg/ml gentamycin (Gibco). Cells were maintained at 37° C. under 7% CO2. • 2. Cells were plated at 6×10^4/ml (0.2 ml/well; 12,000 cells/well) in 96-well microtiter plates (Falcon or Corning/Costar) and incubated at 37° C. overnight (18-24 hours). • 3. 2-5 μl of the test agent-[200 μg/ml stock in 20% DMSO/20 mM HEPES, pH 7.5 (Gibco)] was added to each well to achieve a final concentration of 2-5 μg/ml. Cells were incubated with the test compounds for 5 days at 37° C. • 4. Surviving cells were fixed with 50 μl 50% trichloroacetic acid (Sigma; 10% final concentration) for 1 hour at 4° C. • 5. Plates were rinsed twice with water (0.3 ml per wash using MRD8 robot), and allowed to dry. • 6. Sulforhodamine B (SRB) (Sigma; 0.4% in 1% acetic acid, 50 μl per well; MRD8 robot) was added and plates kept at room temperature for 10 minutes. • 7. Excess dye was removed by washing with 1% acetic acid (3 times, 0.3 ml per wash; MRD8 robot) and allowed to dry. • 8. The dye was solubilized in Tris base (Sigma; 10 mM, 150 μl per well). Plates were kept at room temperature for 30 minutes to allow the dye to diffuse. • 9. Absorbance was measured at 540 nm. • 10. The percentage of cells surviving drug treatment relative to control wells (no drug) was determined. • 11. The difference in % cell survival between the two cell lines was calculated. • 12. Compounds producing a difference score of >50 were considered to be selective for the p21-deficient cells and were evaluated further. Determination of Selectivity of Compounds for p21−/− Cells: • 1. 80S14 cells were cultured as described above. • 2. Cells were seeded in 96-well microtiter plates at 12,000 cells/well (either 0.15 ml/well of 8×10^4 cells/ml suspension, or 0.2 ml/well of 6×10^4 cells/ml suspension). Plates were incubated at 37° C. overnight (18-24 hours). • 3. Serial dilutions of the test agent were added to each well. Dilutions were prepared either in 40% DMSO/20% methanol/20 mM HEPES, pH 7.5 (Gibco) or directly in growth medium. One of two dose ranges were used: 5 pM to 50 μM or 170 pg/ml to 10 μg/ml. Cells were incubated with the test compounds for 5 days at 37° C. • 4. Surviving cells were fixed with 50 μl 50% trichloroacetic acid (Sigma; 10% final concentration) for 1 hour at 4° C. • 5. Plates were rinsed extensively in water, and allowed to dry. • 6. Sulforhodamine B (Sigma; 0.4% in 1% acetic acid, 70 μl per well) was added and plates kept at room temperature for 10 minutes. • 7. Excess dye was removed by washing 5 times with 1% acetic acid and plates were allowed to dry. • 8. The dye was solubilized in Tris base (Sigma; 10 mM, 150 μl per well). Plates were placed on a titer plate shaker (Lab Line Instruments) for 5 minutes to allow the dye to diffuse. • 9. Absorbance was measured at 560 nm.
10. The drug concentration which inhibits cell proliferation by 50% relative to untreated controls (IC50) was determined from cytotoxicity curves.

[2] = system: LoVo Colon cell line; assay: Cytotoxicity assay using LoVo colon cell line (SRB, IC50); format: cell-based; details: Cellular activity in LoVo cell; 4 days incubation, SRB assay; read-out: Inhibition of LoVo
Experimental: Cytotoxicity Assay Using LoVo Colon Cell Line: • 1. LoVo Colon cell lines was cultured in RPMI 1640 medium (Gibco/Invitrogen Life Sciences) supplemented with 10% fetal bovine serum (FBS, Gibco) and 50 μg/ml gentamicin (Gibco). Cells were maintained at 37° C. under 7% CO2. • 2. Cells were seeded in 96-well microtiter plates (Corning/Costar) in a volume of 0.15 ml of growth medium (4000 cells/well). Plates were incubated at 37° C. overnight (18-24 hours). • 3. Serial dilutions of the test agent were added to each well. Dilutions were prepared in growth medium. One of two dose ranges was used: 5 pM to 20 μM or […] to 10 μg/ml. Cells were incubated with the test compounds for 4 days at 37° C. • 4. Surviving cells were processed using the SRB asay, as described above.
5. The drug concentration that inhibits cell proliferation by 50% relative to untreated controls (IC50) was determined from cytotoxicity curves using the LSW Toolbox graphing application.

[3] = Cellular activity in 80S14 (p21-deficient) cells, class symbols

| Compound | melting point [°C] | also measured |
| --- | --- | --- |
| CCCCNC(=O)Nc1cccc(-c2ccnc3c(C(=O)c4cccs4)cnn23)c1 [Example 6, N-butyl-N′-{3-[3-(thien-2-ylcarbonyl)pyrazolo [1,5-a]pyrimidin-7-yl]phenyl}urea] | 158 to 160 | – |
| O=C(Nc1cccc(-c2ccnc3c(C(=O)c4cccs4)cnn23)c1)OCC(Cl)(Cl)Cl [Example 12, 2,2,2-trichloroethyl 3-[3-(thien-2-ylcarbonyl)pyrazolo[1,5-a]pyrimidin-7-yl]phenylcarbamate] | 197 to 200 | IC50 ([1]; Homo sapiens, 120 h, 80S14 (p21-deficient) cells, 5 days at 37° C.): < 1000 nM |
| O=C(c1ccco1)c1cnn2c(-c3cccc(-n4cccc4)c3)ccnc12 [Example 186, 2-Furanyl[7-[3-(1H-pyrrol-1-yl)phenyl]pyrazolo[1,5-a]pyrimidin-3-yl]-methanone] | 204 to 206 | – |
| O=C(Nc1cccc(-c2ccnc3c(C(=O)c4cccs4)cnn23)c1)c1ccncc1 [Example 201, N-{3-[3-(2-Thienylcarbonyl)pyrazolo[1,5-a]pyrimidin-7-yl]phenyl}isonicotinamide] | 212 to 215 | – |
| O=C(Nc1cccc(-c2ccnc3c(C(=O)c4cccs4)cnn23)c1)c1ccccc1F [Example 254, 2-Fluoro-N-{3-[3-(thien-2-ylcarbonyl)pyrazolo[1,5-a]pyrimidin-7-yl]phenyl}benzamide] | 190 to 191 | – |
| O=C(c1cccs1)c1cnn2c(-c3cccc(NCc4ccco4)c3)ccnc12 [Example 263, (7-{3-[(2-Furylmethyl)amino]phenyl}pyrazolo[1,5-a]pyrimidin-3-yl)(thien-2-yl)methanone] | 124 to 128 | – |
| O=C(c1cccs1)c1cnn2c(Cl)ccnc12 [Example 284, (7-Chloropyrazolo[1,5-a]pyrimidin-3-yl)(thien-2-yl)methanone] | 148 to 150 | – |
| COc1ccccc1/C=C/CNc1cccc(-c2ccnc3c(C(=O)c4cccs4)cnn23)c1 [Example 288, [7-(3-{[(2E)-3-(2-Methoxyphenyl)prop-2-enyl]amino}phenyl)pyrazolo[1,5-a]pyrimidin-3-yl](thien-2-yl)methanone] | 128 to 131 | – |
| CC(C)NC(=N)Nc1cccc(-c2ccnc3c(C(=O)c4cccs4)cnn23)c1 [Example 301, N-Isopropyl-N′-{3-[3-(thien-2-ylcarbonyl)pyrazolo[1,5-a]pyrimidin-7-yl]phenyl}guanidine] | > 200 | – |
| CC(C)NC(=NC#N)Nc1cccc(-c2ccnc3c(C(=O)c4cccs4)cnn23)c1 [Example 304, N″-Cyano-N-isopropyl-N′-{3-[3-(thien-2-ylcarbonyl)pyrazolo[1,5-a]pyrimidin-7-yl]phenyl}guanidine] | 240 to 241 | – |
| O=C(Nc1cccc(-c2ccnc3c(C(=O)c4cccs4)cnn23)c1)OCCCN1CCS(=O)(=O)CC1 [Example 309, 3-(1,1-Dioxidothiomorpholin-4-yl)propyl 3-[3-(thien-2-ylcarbonyl)pyrazolo[1,5-a]pyrimidin-7-yl]phenylcarbamate] | 148 to 159 | – |
| CCC(C)C(C)CNc1cccc(-c2ccnc3c(C(=O)c4cccs4)cnn23)c1 (stereo not shown) [Example 318] | 84 to 86 | – |
| C/C=C(\C)CNc1cccc(-c2ccnc3c(C(=O)c4cccs4)cnn23)c1 [Example 319] | 118 to 120 | – |
| CC/C=C/CNc1cccc(-c2ccnc3c(C(=O)c4cccs4)cnn23)c1 [Example 320] | 72 to 75 | – |
| C=C(C)CNc1cccc(-c2ccnc3c(C(=O)c4cccs4)cnn23)c1 [Example 322] | 104 to 106 | – |
| C=C(CC)CNc1cccc(-c2ccnc3c(C(=O)c4cccs4)cnn23)c1 [Example 323] | 79 to 82 | – |
| O=C(O)c1ccccc1C(=O)Nc1cccc(-c2ccnc3c(C(=O)c4cccs4)cnn23)c1 [Example 331, 2-[({3-[3-(Thien-2-ylcarbonyl)pyrazolo[1,5-a]pyrimidin-7-yl]phenyl}amino)carbonyl]benzoic acid] | 215 to 216 | – |
| CC(C)CC(=O)Nc1cccc(-c2ccnc3c(-c4cccc(N)c4)cnn23)c1 [Example 352, N-{3-[3-(3-Aminophenyl)pyrazolo[1,5-a]pyrimidin-7-yl]phenyl}-3-methylbutanamide] | 173 to 175 | – |
| (7-{3-[1-(Pyridin-2-ylmethyl)-1H-pyrazol-3-yl]phenyl}pyrazolo[1,5-a]pyrimidin-3-yl)(thien-2-yl)methanone [Example 406] | – | IC50 [1, 3]: < 1000 nM; IC50 [2]: < 100 nM |
| (7-{3-[2-(2-Hydroxyethyl)-2H-tetraazol-5-yl]phenyl}pyrazolo[1,5-a]pyrimidin-3-yl)(thien-2-yl)methanone [Example 402] | – | IC50 [1, 3]: < 1000 nM; IC50 [2]: 100 to 1000 nM |
| (7-{3-[2-(Pyridin-2-ylmethyl)-2H-tetraazol-5-yl]phenyl}pyrazolo[1,5-a]pyriridin-3-yl)(thien-2-yl)methanone [Example 397] | – | IC50 [1, 3]: < 1000 nM; IC50 [2]: 100 to 1000 nM |
| tert-Butyl 4-[2-oxo-2-({3-[3-(thien-2-ylcarbonyl)pyrazolo[1.5-a]pyrimidin-7-yl]phenyl}amino)ethyl]piperidine-1-carboxylate [Example 286] | – | IC50 [1, 3]: < 1000 nM; IC50 [2]: < 100 nM |
| {7-[3-(1-Ethyl-1H-pyrazol-3-yl)phenyl]pyrazolo[1,5-a]pyrimidin-3-yl}(thien-2-yl)methanone [Example 407] | – | IC50 [1, 3]: 1000 to 10000 nM; IC50 [2]: 100 to 1000 nM |
| {7-[3-(1H-Pyrazol-3-yl)phenyl]pyrazolo[1,5-a]pyrimidin-3-yl}(thien-2-yl)methanone [Example 403] | – | IC50 [1, 3]: < 1000 nM; IC50 [2]: < 100 nM |
